In paper PMC7424564 (Pharmacology Research & Perspectives, 2020):
In brackets after ≈: the same amount, converted by molar mass. Several values for one entry are separate records, joined by “and”; a condition that tells them apart may be missing. Equal values may be shown once. Entries after “also recorded” stand apart in the source; their conditions may differ. Read-outs that look alike come from different tables or passages of the source. Values belong to the compound of their own block, whether it stands above or below them.

Assays:
arthritis = conditions: cited from earlier work
mutant BTK (C481S) [1] = conditions: cited from earlier work
U2932 cell line = conditions: cited from earlier work
IL‐6 = conditions: read-out: IC50 for IL‐6 inhibition; in‐vitro assays; cited from earlier work
SCW induced arthritis = assay: Streptococcal cell wall; format: in vivo, Sprague Dawley rats
IL‐8 secretion = assay: Cytokine ELISA, IL‐8 secretion in TMD8 cells; format: cell-based; conditions: Homo sapiens, TMD8, 16 h, read-out: IC50 IL‐8 secretion
HCK = HCK (Homo sapiens, UniProt P08631); assay: Kinase profiling; format: biochemical
CYP2C19 = CYP2C19 (Homo sapiens, UniProt P33261); assay: In vitro CYP inhibition in human liver microsomes; format: in vitro ADME
phospho‐PLCγ2 (Y1217) = assay: Phospho‐protein analysis in THP‐1 cells; format: cell-based; conditions: Homo sapiens, THP-1, 1 h, read-out: IC50 PLCγ2‐phosphorylation (Y1217)
Plasma protein binding [2] = format: in vitro ADME; conditions: rat
BTK [3] = target: T1, BTK (Homo sapiens, UniProt Q06187); assay: Kinase profiling; format: biochemical
CYP2D6 = CYP2D6 (Homo sapiens, UniProt P10635); assay: In vitro CYP inhibition in human liver microsomes; format: in vitro ADME
JAK3 = JAK3 (Homo sapiens, UniProt P52333); assay: Kinase profiling; format: biochemical
[4] = In vitro metabolism in liver microsomes; format: in vitro ADME; conditions: mouse liver microsomes
BTK [5] = target: T1, BTK; assay: Receptor residence time after washout in THP‐1 cells; format: binding; conditions: 500 nmol/L for 1 hour, 24 hours, densitometric scanning
BTK‐WT = BTK‐WT (Homo sapiens, UniProt Q06187); assay: Ki determination with Omnia Tyr peptide kit; format: biochemical
[6] = In vitro metabolism in liver microsomes; format: in vitro ADME; conditions: human liver microsomes
BTK [7] = target: T1, BTK; assay: Fluorescence competition binding assay
[8] = In vivo pharmacokinetics in mice; conditions: male, BALB/c, mouse, plasma
[9] = Toxicological studies in rats; format: in vivo; conditions: rats up to 300 mg/kg dose (unpublished observation)
pH dependent solubility = format: physicochemical
[10] = In vitro metabolism in liver microsomes; format: in vitro ADME; conditions: monkey liver microsomes
TNF‐α secretion = assay: Cytokine ELISA, TNF‐α secretion in THP‐1 cells; format: cell-based; conditions: Homo sapiens, THP-1, read-out: IC50 TNF‐α secretion
[11] = In vitro metabolism in liver microsomes; format: in vitro ADME; conditions: dog liver microsomes
Raji cells = assay: Cell cytotoxicity assay; format: cell-based; conditions: Homo sapiens, read-out: cell killing potency (IC50) Raji
CYP1A2 = CYP1A2 (Homo sapiens, UniProt P05177); assay: In vitro CYP inhibition in human liver microsomes; format: in vitro ADME
U2932 cells = assay: Cell cytotoxicity assay; format: cell-based; conditions: for IC50: Homo sapiens
CYP2C8 = CYP2C8 (Homo sapiens, UniProt P10632); assay: In vitro CYP inhibition in human liver microsomes; format: in vitro ADME
[12] = system: collagen‐induced arthritis (CIA); assay: Collagen‐induced arthritis in mice; format: in vivo, DBA1/J male mice; conditions: for reduction of clinical scores compared with vehicle controls: at study termination; for group mean histologic severity score of paws: vehicle 10.4
[13] = Caco‐2 permeability/efflux ratio; format: in vitro ADME; conditions: human, Caco-2
Caco‐2 cell monolayers = assay: Caco‐2 permeability/efflux ratio; format: in vitro ADME; conditions: Caco2 monolayer
TEC = TEC (Homo sapiens, UniProt P42680); assay: Kinase profiling; format: biochemical
mutant BTK (C481S) [14] = target: mutant BTK (C481S) (Homo sapiens, UniProt Q06187, C481S); assay: BTK enzyme activity assay; format: biochemical
IL‐6 secretion = assay: Cytokine ELISA, IL‐6 secretion in TMD8 cells; conditions: read-out: IC50 IL‐6 secretion, TMD‐8 cells, 16 hours
[15] = In vivo pharmacokinetics in rats; design: species or system male Wistar rats; conditions: rat
phospho‐BTK (Y223) = assay: Phospho‐protein analysis in THP‐1 cells; format: cell-based, human
HBL‐1 cells = assay: Cell cytotoxicity assay; format: cell-based; conditions: HBL1, 96 h, read-out: IC50 cell proliferation HBL‐1
Plasma protein binding [16] = format: in vitro ADME; conditions: human
CYP2C9 = CYP2C9 (Homo sapiens, UniProt P11712); assay: In vitro CYP inhibition in human liver microsomes; format: in vitro ADME
TMD8 cells [17] = assay: Cell cytotoxicity assay; format: cell-based; conditions: Homo sapiens, TMD8, 96 h, read-out: IC50 cell proliferation TMD8
TMD8 cells [18] = assay: Cell washout cytotoxicity assay; conditions: TMD‐8 cells
[19] = system: TMD‐8 DLBCL xenograft tumor; assay: TMD‐8 xenograft model; conditions: for tumor growth inhibition: 20 consecutive days
[20] = In vitro metabolism in liver microsomes; format: in vitro ADME; conditions: rat liver microsomes
CYP3A4 = CYP3A4 (Homo sapiens, UniProt P08684); assay: In vitro CYP inhibition in human liver microsomes; format: in vitro ADME
[21] = male, Wistar, plasma, iv, 1 mg/kg
[22] = male, Wistar, plasma, po, 3 mg/kg

T1 sequence (Q06187 whole entry): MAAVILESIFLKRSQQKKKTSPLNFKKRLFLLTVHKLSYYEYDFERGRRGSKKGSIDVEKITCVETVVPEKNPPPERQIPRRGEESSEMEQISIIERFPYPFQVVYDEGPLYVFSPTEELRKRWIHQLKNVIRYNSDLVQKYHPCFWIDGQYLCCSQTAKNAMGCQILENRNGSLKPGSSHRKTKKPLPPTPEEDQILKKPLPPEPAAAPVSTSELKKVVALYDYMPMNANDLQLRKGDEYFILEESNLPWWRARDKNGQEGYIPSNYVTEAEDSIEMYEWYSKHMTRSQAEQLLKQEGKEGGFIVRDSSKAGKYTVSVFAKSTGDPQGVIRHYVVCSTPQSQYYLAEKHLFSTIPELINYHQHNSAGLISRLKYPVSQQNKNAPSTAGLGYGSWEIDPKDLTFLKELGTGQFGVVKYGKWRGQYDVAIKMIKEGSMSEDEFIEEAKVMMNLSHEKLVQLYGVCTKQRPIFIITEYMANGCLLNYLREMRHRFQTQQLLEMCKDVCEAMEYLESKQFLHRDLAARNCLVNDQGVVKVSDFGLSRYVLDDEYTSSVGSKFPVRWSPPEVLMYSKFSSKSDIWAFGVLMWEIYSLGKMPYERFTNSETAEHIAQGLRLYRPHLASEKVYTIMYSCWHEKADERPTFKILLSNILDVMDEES
Chain of CYP2C9 (P11712 whole entry): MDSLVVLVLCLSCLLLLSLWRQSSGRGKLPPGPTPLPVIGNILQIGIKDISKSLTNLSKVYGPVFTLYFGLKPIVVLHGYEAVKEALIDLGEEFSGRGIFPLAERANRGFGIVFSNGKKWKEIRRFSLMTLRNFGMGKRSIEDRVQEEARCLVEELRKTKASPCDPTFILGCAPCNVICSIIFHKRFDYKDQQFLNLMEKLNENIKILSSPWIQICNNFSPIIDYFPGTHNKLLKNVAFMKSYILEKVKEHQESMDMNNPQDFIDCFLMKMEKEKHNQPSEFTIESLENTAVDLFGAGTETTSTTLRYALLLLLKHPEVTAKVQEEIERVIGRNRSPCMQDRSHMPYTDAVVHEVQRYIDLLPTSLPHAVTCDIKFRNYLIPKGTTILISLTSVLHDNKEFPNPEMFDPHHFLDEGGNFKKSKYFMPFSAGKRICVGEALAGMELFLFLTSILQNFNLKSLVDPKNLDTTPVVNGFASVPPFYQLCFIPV
Chain of CYP2C8 (P10632 whole entry): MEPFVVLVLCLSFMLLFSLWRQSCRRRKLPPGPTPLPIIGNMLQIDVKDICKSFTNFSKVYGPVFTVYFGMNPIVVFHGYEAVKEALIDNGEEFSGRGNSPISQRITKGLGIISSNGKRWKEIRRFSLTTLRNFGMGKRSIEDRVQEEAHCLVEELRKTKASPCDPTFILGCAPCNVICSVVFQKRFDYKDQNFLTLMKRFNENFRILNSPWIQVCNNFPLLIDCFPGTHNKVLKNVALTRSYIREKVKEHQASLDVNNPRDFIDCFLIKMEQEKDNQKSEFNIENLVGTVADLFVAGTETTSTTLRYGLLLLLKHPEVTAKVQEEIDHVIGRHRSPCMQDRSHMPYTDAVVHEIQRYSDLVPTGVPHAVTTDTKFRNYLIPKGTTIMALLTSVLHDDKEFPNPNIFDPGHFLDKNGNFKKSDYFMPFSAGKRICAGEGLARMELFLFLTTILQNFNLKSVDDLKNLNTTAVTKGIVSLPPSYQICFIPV
Chain of CYP2C19 (P33261 whole entry): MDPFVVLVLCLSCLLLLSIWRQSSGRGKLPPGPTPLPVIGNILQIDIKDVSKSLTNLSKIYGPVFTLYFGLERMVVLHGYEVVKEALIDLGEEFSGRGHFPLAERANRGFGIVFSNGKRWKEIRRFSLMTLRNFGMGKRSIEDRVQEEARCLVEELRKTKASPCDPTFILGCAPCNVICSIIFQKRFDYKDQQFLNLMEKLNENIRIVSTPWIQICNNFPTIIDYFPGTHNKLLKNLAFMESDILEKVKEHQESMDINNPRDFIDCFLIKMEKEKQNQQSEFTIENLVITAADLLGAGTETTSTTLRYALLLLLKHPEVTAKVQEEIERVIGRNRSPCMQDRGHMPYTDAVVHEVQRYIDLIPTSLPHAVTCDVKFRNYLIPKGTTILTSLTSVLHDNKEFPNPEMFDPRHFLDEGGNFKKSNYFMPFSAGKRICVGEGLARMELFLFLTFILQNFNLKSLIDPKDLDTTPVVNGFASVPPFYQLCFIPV
Chain of TEC (P42680 whole entry): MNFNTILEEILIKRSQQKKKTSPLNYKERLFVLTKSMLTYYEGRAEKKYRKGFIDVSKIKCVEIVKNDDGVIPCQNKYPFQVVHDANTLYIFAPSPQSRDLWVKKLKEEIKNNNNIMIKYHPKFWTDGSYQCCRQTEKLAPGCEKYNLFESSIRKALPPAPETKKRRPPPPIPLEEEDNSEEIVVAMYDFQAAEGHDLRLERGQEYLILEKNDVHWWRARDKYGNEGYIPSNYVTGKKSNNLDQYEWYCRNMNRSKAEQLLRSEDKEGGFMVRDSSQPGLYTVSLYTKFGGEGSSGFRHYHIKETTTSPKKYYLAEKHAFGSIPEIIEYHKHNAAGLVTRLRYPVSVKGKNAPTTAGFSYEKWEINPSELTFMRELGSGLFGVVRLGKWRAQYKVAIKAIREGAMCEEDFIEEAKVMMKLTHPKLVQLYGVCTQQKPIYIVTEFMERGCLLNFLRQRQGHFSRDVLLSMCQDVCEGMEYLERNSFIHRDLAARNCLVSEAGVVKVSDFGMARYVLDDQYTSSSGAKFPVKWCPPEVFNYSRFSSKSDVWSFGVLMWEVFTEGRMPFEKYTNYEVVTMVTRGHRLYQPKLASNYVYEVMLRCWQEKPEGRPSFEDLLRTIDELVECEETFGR
Chain of HCK (P08631 whole entry): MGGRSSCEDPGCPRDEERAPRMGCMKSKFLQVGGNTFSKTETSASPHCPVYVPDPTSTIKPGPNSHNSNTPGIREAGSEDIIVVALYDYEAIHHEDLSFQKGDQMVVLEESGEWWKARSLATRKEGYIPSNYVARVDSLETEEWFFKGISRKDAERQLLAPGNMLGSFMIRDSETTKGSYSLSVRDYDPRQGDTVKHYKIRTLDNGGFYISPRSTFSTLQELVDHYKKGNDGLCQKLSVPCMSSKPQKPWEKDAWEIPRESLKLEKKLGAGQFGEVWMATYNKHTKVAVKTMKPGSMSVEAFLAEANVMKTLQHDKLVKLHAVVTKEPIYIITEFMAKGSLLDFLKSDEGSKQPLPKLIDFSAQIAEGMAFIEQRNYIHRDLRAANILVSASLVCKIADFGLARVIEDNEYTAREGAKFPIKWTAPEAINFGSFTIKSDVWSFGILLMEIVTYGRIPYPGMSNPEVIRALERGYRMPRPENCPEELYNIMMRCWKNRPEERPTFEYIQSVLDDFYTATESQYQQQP
Chain of CYP1A2 (P05177 whole entry): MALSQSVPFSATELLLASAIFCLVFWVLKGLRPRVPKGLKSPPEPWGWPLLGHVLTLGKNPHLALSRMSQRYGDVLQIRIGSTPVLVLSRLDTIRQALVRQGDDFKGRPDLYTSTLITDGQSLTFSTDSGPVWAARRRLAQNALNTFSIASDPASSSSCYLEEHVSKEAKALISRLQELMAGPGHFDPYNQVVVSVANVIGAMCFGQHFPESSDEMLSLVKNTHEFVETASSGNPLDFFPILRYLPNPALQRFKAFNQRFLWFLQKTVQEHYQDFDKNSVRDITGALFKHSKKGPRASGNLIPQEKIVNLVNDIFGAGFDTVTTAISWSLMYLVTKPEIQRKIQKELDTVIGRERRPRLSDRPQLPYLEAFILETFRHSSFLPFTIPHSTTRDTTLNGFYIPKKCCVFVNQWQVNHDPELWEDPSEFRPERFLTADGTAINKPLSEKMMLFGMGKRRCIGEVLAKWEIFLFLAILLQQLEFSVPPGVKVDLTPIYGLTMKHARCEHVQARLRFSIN
Chain of BTK‐WT (Q06187 whole entry): as the sequence (Q06187 whole entry) above
Chain of CYP3A4 (P08684 whole entry): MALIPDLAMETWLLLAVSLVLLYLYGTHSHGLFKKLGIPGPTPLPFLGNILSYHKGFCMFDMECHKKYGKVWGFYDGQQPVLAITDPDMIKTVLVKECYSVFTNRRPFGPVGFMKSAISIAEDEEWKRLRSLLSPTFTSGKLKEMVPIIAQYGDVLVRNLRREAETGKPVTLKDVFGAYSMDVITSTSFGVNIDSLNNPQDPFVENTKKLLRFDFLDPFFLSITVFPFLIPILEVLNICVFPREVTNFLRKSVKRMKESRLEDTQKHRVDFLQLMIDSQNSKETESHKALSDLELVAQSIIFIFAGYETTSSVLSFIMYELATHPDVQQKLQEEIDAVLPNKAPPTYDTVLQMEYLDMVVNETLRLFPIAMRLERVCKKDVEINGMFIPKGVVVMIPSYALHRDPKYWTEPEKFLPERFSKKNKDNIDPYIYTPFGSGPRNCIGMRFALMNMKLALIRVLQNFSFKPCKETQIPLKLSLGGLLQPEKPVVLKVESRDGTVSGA
Chain of CYP2D6 (P10635 whole entry): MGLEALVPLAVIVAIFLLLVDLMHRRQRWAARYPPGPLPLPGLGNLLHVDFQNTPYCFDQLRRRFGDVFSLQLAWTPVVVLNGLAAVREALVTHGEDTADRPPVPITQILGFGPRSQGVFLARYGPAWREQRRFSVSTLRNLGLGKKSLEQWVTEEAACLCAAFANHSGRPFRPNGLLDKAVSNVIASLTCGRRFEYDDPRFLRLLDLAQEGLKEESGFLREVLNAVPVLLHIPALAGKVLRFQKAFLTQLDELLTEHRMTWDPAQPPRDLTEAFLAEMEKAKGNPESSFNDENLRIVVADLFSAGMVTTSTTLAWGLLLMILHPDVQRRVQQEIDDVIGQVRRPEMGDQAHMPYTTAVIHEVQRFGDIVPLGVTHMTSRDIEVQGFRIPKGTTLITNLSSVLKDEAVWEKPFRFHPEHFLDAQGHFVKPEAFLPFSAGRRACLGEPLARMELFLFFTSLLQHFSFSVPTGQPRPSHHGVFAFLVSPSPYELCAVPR
Chain of mutant BTK (C481S) (Homo sapiens, UniProt Q06187, C481S) (Q06187 whole entry C481S): as the sequence (Q06187 whole entry) above, with C481S counted along it

Structure (SMILES): C=CC(=O)N1CCC[C@@H](n2nc(-c3ccc(Oc4ccccc4)cc3)c3c(N)ncnc32)C1 [ibrutinib]
ED50 anti‐arthritic activity (arthritis): 2.6 mg/kg/day
IC50 (mutant BTK (C481S) [1]; read-out: IC50 mutant BTK, C481S): 1 µM
sensitivity of U2932 cell line to cytotoxicity (U2932 cell line): resistant
IC50 (IL‐6): 0.0039 µM

Structure (SMILES): CC#CC(=O)N1CCC[C@H]1c1nc(-c2ccc(C(=O)Nc3ccccn3)cc2)c2c(N)nccn12 [ACP‐196]
activity for the mutant BTK (mutant BTK (C481S) [1]): appreciable activity

IC50 (IL‐8 secretion): 0.0002 µM
IC50 (HCK): > 10 µM
IC50 (CYP2C19): > 30 µM
IC50 (phospho‐PLCγ2 (Y1217)): 0.114 µM
fraction unbound (Plasma protein binding [2]): 0.088
IC50 (BTK [3]): 0.027 µM
IC50 (CYP2D6): > 30 µM
IC50 (JAK3): > 10 µM
mClint [4]: 0.46 mL/min/gm liver
% metabolized ([4]; 1 µmol/L, 30 minutes, NADPH): up to 13%
ZYBT1 still bound with BTK after washout (BTK [5]): more than 95%
Ki (BTK‐WT): 0.014 µM
mClint [6]: 1.28 mL/min/gm liver
% metabolized ([6]; 1 µmol/L, 30 minutes, NADPH): ≤ 32%
IC50 (BTK [7]): 0.001 µM
clearance ([8]; iv, 1 mg/kg): 39.5 mL/min/kg
half-life ([8]; iv, 1 mg/kg): 24.6 min
AUC ([8]; po, 3 mg/kg): 590 ng·h/mL
Cmax ([8]; po, 3 mg/kg): 703 ng/mL
Tmax ([8]; po, 3 mg/kg): 15 min
half-life ([8]; po, 3 mg/kg): 45.6 min
solubility (pH dependent solubility; buffer, pH 4.5, aqueous buffer): < 2 µM
solubility (pH dependent solubility; buffer, pH 6.8, aqueous buffer): < 2 µM
solubility (pH dependent solubility; pH 1.2, simulated gastric fluid): 500 µM (≈ 247 µg/mL)
solubility (pH dependent solubility; purified water, water): < 2 µM
mCLlint [10]: 3.49 mL/min/gm liver
% metabolized ([10]; 1 µmol/L, 30 minutes, NADPH): 66%
IC50 (TNF‐α secretion): 0.001 µM
mClint [11]: 0.67 mL/min/gm liver
% metabolized ([11]; 1 µmol/L, 30 minutes, NADPH): ≤ 18%
IC50 (CYP1A2): > 30 µM
IC50 (CYP2C8): 5 to 15 µM and 5.5 µM
Papp at 2 µmol/L [13]: 3.3 ×10⁻⁶ cm/s
efflux transporter substrate (Caco‐2 cell monolayers): substrate of efflux transporters
IC50 (TEC): 0.038 µM
IC50 (mutant BTK (C481S) [14]): 0.014 µM
IC50 (IL‐6 secretion): 0.0004 µM
Vd [15, 21]: 0.88 ± 0.12 L/kg
clearance [15, 21]: 36 ± 7.8 mL/min/kg
half-life [15, 21]: 36 ± 6 min
AUC [15, 22]: 908 ± 170 ng·h/mL
bioavailability [15, 22]: 75%
half-life [15, 22]: 132 ± 78 min
Cmax ([15]; male, Wistar, plasma, po, 3 mg/kg, peak plasma concentration (Cmax), rats, oral (3 mg/mg), mean ± SD, n = 4): 650 ± 222 ng/mL
exposure to free drug at efficacy dose ([15]; considering 91% PPB): 360 nmol/L
IC50 (phospho‐BTK (Y223); Homo sapiens, THP-1, 1 h, read-out: IC50 BTK‐phosphorylation (Y223)): 0.002 µM
fraction unbound (Plasma protein binding [16]): 0.016
IC50 (CYP2C9): 5 to 15 µM and 14.7 µM
mClint [20]: 2.62 mL/min/gm liver
% metabolized ([20]; 1 µmol/L, 30 minutes, NADPH): 55%
IC50 (CYP3A4): > 30 µM
Structure (SMILES): C=CC(=O)N1CC2CC(n3nc(-c4ccc(C(=O)Nc5ccccn5)cc4)c4c(N)ncnc43)CC2C1 (centres unmarked) [ZYBT1, 4‐(1‐(2‐acryloyloctahydrocyclopenta[c]pyrrol‐5‐yl)‐4‐amino‐1H‐pyrazolo[3,4‐d]pyrimidin‐3‐yl)‐N‐(pyridin‐2‐yl)benzamide]
inhibition of paw volume (SCW induced arthritis; 75 mg/kg dose): complete inhibition of paw volume
serum levels of IL‐6 (SCW induced arthritis; 0.2, 1, 5, 25, 75 mg/kg): reduced with the treatment in a dose‐dependent manner
body weight (SCW induced arthritis; 0.2, 1, 5, 25, 75 mg/kg, SCW control animals lost weight): restored the body weight in a dose dependent manner
hematological and biochemical profile, clinical signs and body weight [9]: did not show any change in hematological and biochemical profile, clinical signs and body weight
IC50 (Raji cells): 15 µM
IC50 (U2932 cells; U2932, 96 h, read-out: IC50 cell proliferation U2932): 0.961 µM
IC50 (U2932 cells; U2932, read-out: IC50 U2932): ~1 µM
fold resistance of U2932 versus TMD‐8 and HBL‐1 (U2932 cells; within ABC‐DLBCL subgroup): ~ 1000 fold
reduction of clinical scores compared with vehicle controls ([12]; 0.125 mg/kg once daily oral): 22%
group mean histologic severity score of paws ([12]; 0.125 mg/kg once daily): 5
reduction of clinical scores compared with vehicle controls ([12]; 0.25 mg/kg once daily oral): 61%
group mean histologic severity score of paws ([12]; 0.25 mg/kg once daily): 3.75
reduction of clinical scores compared with vehicle controls ([12]; 0.5 mg/kg once daily oral): 93%
group mean histologic severity score of paws ([12]; 0.5 mg/kg once daily): 1
efficacy in arthritis model compared with ibrutinib ([12]; 0.6 mg/kg ZYBT1 versus 3 mg/kg Ibrutinib): comparable efficacy as 3 mg/kg Ibrutinib
reduction of clinical scores compared with vehicle controls ([12]; 1 mg/kg once daily oral): 97%
group mean histologic severity score of paws ([12]; 1 mg/kg once daily): 0.2
body weight change ([12]; 0.125, 0.25, 0.5 & 1 mg/kg, OD, end of the study (Figure S5)): did not observe any body weight change
lowest, significantly efficacious dose ([12]; once daily): 0.25 mg/kg
time to improvement in clinical signs of disease after initiation of dosing ([12]; once daily oral dosing): 2 days
phosphorylation of BTK after washout (phospho‐BTK (Y223); THP‐1 cells, 500 nmol/L for 1 hour, washout, 24 hours): completely abolished
concentration that completely abrogates phosphorylation of tyrosine 223 (phospho‐BTK (Y223); THP‐1 cells, one hour): ≥ 30 nmol/L
IC50 (HBL‐1 cells): 0.012 µM
IC50 (TMD8 cells [17]): 0.001 µM
time for which cell killing is maintained after drug wash‐off (TMD8 cells [18]; 25 nmol/L): at least 48 hours
tumor growth inhibition ([19]; 1.5 mg/kg BID oral): 10%
tumor growth inhibition ([19]; 3 mg/kg BID oral): 50%
anti‐tumor efficacy compared with ibrutinib ([19]; 12.5 mg/kg, BID, intra peritoneal, 14 consecutive days (Figure S2)): comparable; also recorded: slightly better potency compared to Ibrutinib
tumor growth inhibition ([19]; 15 mg/kg BID oral): 88%
anti‐tumor efficacy compared with acalabrutinib ([19]; 15 mg/kg, BID, p.o., 14 consecutive days (Figure S3)): much better efficacy than acalabrutinib
effect on body weight ([19]; 1.5, 3 & 15 mg/kg, p.o, BID, 20 days (Figure S4)): does not have any effect on the body weight

Structure (SMILES): Cc1nc(Nc2ncc(C(=O)Nc3c(C)cccc3Cl)s2)cc(N2CCN(CCO)CC2)n1 [dasatinib]
cytotoxic effect after drug wash‐off (TMD8 cells [18]; 100 nmol/L): failed to exert its effect when washed off; also recorded: completely lost its cytotoxic potential

Structure (SMILES): CC#CC(=O)N1CC[C@@H](n2c(=O)n(-c3ccc(Oc4ccccc4)cc3)c3c(N)ncnc32)C1 [ONO/GS‐4050]
activity for the mutant BTK (mutant BTK (C481S) [1]): appreciable activity
